Experiments:
[1] = tested on: Ras; test: Ras activation assay (GTP-bound Ras, Raf RBD pull-down); format: cell-based, human; conditions: primary T cells
Experimental: (§1) Cell lysates were incubated with 10 μg/ml PAK-1 agarose (Rac assays) or 10 μg/mg Raf RBD agarose (Ras assay) for 60 minutes (Rac assays) or 30 minutes (Ras assays) at 4° C. Agarose beads were collected by centrifugation followed by denaturation, boiling of the samples, and SDS-PAGE analysis.

[2] = tested on: CD4+ T cells; test: Apoptosis by Nicoletti staining and transmission electron microscopy; format: cell-based, human; conditions: 5 days
Experimental: For FACS analysis, apoptotic cells were detected by staining with annexin V and propidium iodide using the Annexin V FITC Apoptosis Detection Kit I (PharMingen) (Atreya et al., Nat. Med. 6:583-588 (2000)). In brief, T cells were washed twice in PBS, and the pellet was resuspended in annexin V binding buffer (PharMingen) at a concentration of 10^6 cells per milliliter. Annexin V FITC and propidium iodide were added (5 ill of each per 10^5 cells). Samples were gently mixed and incubated for 15 minutes at room temperature in the dark before FACS analysis. To verify the results obtained with the annexin V/propidium iodide staining, analysis of T cells displaying DNA fragmentation was also determined by the Nicoletti technique, as described in (Nicoletti et al., J. Immunol. Methods 139:271-279 (1991)). 10^6 T cells were fixed in 70% ethanol, washed once in HBSS, resuspended in 1 ml of HBSS and 1 ml of phosphate citric acid buffer (0.2 mol/l Na2PO4 and 0.004 mol/l citric acid [pH 7.8]), and incubated at room temperature for 5 minutes. After centrifugation, cells were resuspended in 1 ml of HBSS containing 20 μg/ml propidium iodide and 10 U DNase-free RNase A and incubated at room temperature for 30 minutes. Finally, cells were analyzed on a FACScan flow cytometer. Because of the fragmentation of DNA, apoptotic cells appear as hypodiploid in the DNA histogram.

[3] = tested on: MEK; test: MEK phosphorylation and expression (Western blot, FACS); format: cell-based, human; conditions: 3 days
Experimental: (§2) FACS analysis: Analysis of peripheral blood T cells and lamina propria T lymphocytes by FACS (FACSscan; Becton Dickinson; Berlin, Germany) was performed using FITC-labeled murine antibodies to human CD4 (PharMingen), anti-mouse IgG1 isotype control antibodies (PharMingen), antibodies to bcl-xL and p mitogen-activated protein kinase kinase (pMEK) (Santa Cruz Biotech; Santa Cruz, Calif., USA), and goat anti-mouse Fab-FITC (DAKO). For intracellular staining analysis, T cells were fixed in PBS/4% paraformaldehyde (Merck; Munich, Germany) for 10 minutes at 4° C., washed twice in PBS, permeabilized in PBS/0.1% Triton X-100 (Sigma-Aldrich; Steinheim, Germany), and treated with mouse anti-human bcl-xL or MEK antibodies (2 μg per 5×10^5 cells) for 30 minutes on ice. T cells were washed twice in PBS/0.1% Triton X-100 before incubation with goat anti-mouse Fab-FITC (2 μl per 10^5 cells). Finally, T cells were washed twice in PBS before FACS analysis.
The cells were then washed in PBS, resuspended in 1 ml of T40E10N150 buffer (40 mM Tris-HCl [pH 7.9], 10 mM EDTA [pH 8.0], 150 mM NaCl), put on ice for 5 minutes, and centrifuged for 4 minutes at 4° C. at 1,000 rpm. The cell pellet was then resuspended on ice in 70 μl of buffer (10 mM HEPES [pH 8.0], 400 mM NaCl, 0.1 mM EDTA, 5% glycerol, 1 mM DTT, 1 mM PMSF) and centrifuged at 15,000 rpm for 30 minutes at 4° C. The protein concentrations in supernatants were determined with the Bio-Rad Protein Assay (Bio-Rad; Munich, Germany).
(§3) Western blots: Equal amounts of extract (30 μg) were added to 8 μl of electrophoresis sample buffer (Firma Roth; Karlsruhe, Germany). After boiling, the extracts were loaded on 15% SDS-PAGE gels and electrophoretically separated. Proteins were transferred to nitrocellulose membranes, and detection was performed with the ECL Western blotting analysis system (Amersham). […]

[4] = tested on: Rac1; test: Rac1 protein expression (Western blot, immunocytochemistry); format: cell-based, human
Experimental: as §3
Immunocytochemical analysis: Immunocytochemistry was performed as described in Atreya et al., supra and Finotto et al., J. Exp. Med. 193:1247-1260 (2001)). […] Cells were rinsed with PBS, and nuclei were counterstained with Hoechst33342 blue for fluorescence (Molecular Probes; Burlingame, Calif., USA). Finally, cells were washed in PBS and analyzed with an Olympus Microscope. Six to ten high-power fields were finally analyzed in all patients per condition, and selected high-power fields were further analyzed by confocal laser microscopy.

[5] = tested on: STAT-3; test: Rac1-bound STAT-3 (PAK pull-down, immunoblot); format: cell-based, human; conditions: primary T cells, 3 days
Experimental: FIG. 7. […] Purified CD4^+ T lymphocytes were stimulated with IL-2 and antibodies to CD3 or IL-2 plus antibodies to CD3 and CD28 for 3 days. […] GTP-bound Ras (Ras-GTP) was analyzed using Raf RGD to determine Ras activation. […] Similarly, Ras was obtained using Raf RGD agarose followed by analysis of [^3H]GTP-bound Ras by scintillation counting.
as §1

[6] = tested on: bcl-xL; test: bcl-xL protein expression (Western blot, intracellular FACS); format: cell-based, human; conditions: activated T cells
Experimental: as §2
The cells were then washed in PBS, resuspended in 1 ml of T40E10N150 buffer (40 mM Tris-HCl [pH 7.9], 10 mM EDTA [pH 8.0], 150 mM NaCl), put on ice for 5 minutes, and centrifuged for 4 minutes at 4° C. at 1,000 rpm. […] The protein concentrations in supernatants were determined with the Bio-Rad Protein Assay (Bio-Rad; Munich, Germany). […]

[7] = tested on: primary CD4+ T lymphocytes; test: Mitochondrial membrane potential (JC-1, FACS); conditions: 5 days

| SMILES | activation of Ras (GTP-bound Ras) [1] | number of apoptotic CD4+ T cells [2] | MEK phosphorylation [3] | expression of Rac1 [4] | Rac1-bound STAT-3 [5] | bcl-xL protein expression [6] | ΔΨm in primary T cells [7] | expression levels of MEK [3] |
| --- | --- | --- | --- | --- | --- | --- | --- | --- |
| Sc1ncnc2nc[nH]c12 [6-MP, 6-mercaptopurine] | fail to modulate | marked increase | suppresses | not significantly suppressed | Downregulation | strongly suppressed | loss of ΔΨm |  |
| Cn1cnc([N+](=O)[O-])c1Sc1ncnc2nc[nH]c12 [azathioprine, Azathioprine] | virtually unaffected | marked increase | suppressed | not significantly suppressed | reduced | strongly suppressed | loss of ΔΨm | nearly unchanged |
